Earlier results, collected in patent US11291812B2, “Sinus delivery of sustained release therapeutics” (Intersect ENT, Inc., priority 2003, dated 2022).

Tested on: sinusitis
Conditions: ampicillin delivered from a poly(lactic-co-glycolic)acid (PLGA) film placed in rabbit maxillary sinus

With `CC1(C)S[C@@H]2[C@H](NC(=O)[C@H](N)c3ccccc3)C(=O)N2[C@H]1C(=O)O` [ampicillin] as the molecule, how does the “clinical signs of sinusitis” value read?
Its value is “improved”.
